Assays:
Assay type in all cases: biochemical
[1] = test system: Collagenase from Clostridium histolyticum; assay: In vitro anti-collagenase activity (FALGPA substrate)
Method: The assay employed was based on spectrophotometric methods reported in the literature. The assay was performed in 50 mM Tricine buffer (pH 7.5 with 400 mM NaCl and 10 mM CaCl2). Collagenase from Clostridium histolyticum (ChC-[…]) was dissolved in buffer for use at an initial concentration of 0.8 units/mL according to the supplier's activity data. The synthetic substrate N-[3-(2-furyl)acryloyl]-Leu-Gly-Pro-Ala (FALGPA) was dissolved in Tricine buffer to 2 mM. […] The final reaction mixture (150 μL total volume) contained Tricine buffer, 0.8 mM FALGPA, 0.1 units ChC and 20-100 μg test extracts. Negative controls were performed with water. Absorbance at 335 nm was measured immediately after adding substrate and then continuous for 20 minutes. EGCG, 250 μM (0.114 mg/mL) was used as a positive control. FIG. 9

[2] = molecular target: Porcine pancreatic elastase (Sus scrofa, UniProt P00772); assay: In vitro anti-elastase activity
Sequence of Porcine pancreatic elastase (P00772 27-266): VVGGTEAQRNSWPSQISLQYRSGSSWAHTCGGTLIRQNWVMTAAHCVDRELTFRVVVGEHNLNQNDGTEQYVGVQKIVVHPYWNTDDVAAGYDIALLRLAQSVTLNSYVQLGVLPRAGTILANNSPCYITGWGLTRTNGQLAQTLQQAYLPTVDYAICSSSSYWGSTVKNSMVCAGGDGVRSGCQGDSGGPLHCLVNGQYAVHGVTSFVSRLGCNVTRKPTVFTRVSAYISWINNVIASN
Method: The assay employed was based on methods from the literature. This assay was performed in 0.2 mM Tris-HCL buffer (pH 8.0). Porcine pancreatic elastase (PE-E.C.3.4.21.36) was dissolved to make a 3.33 mg/mL stock solution in sterile water. The substrate N-succinyl-Ala-Ala-Ala-p-nitroanilide (AAAPVN) was dissolved in buffer at 1.6 mM. The test extracts were incubated with the enzyme for 15 minutes before adding substrate to begin the reaction. The final reaction mixture (250 μL total volume) contained buffer, 0.8 mM AAAPVN,1 mg/mL PE and 25 mg test extract. EGCG (1 mg/mL) was used as a positive control. Negative controls were performed using water. Absorbance values between 381 and 402 nm (following pre-screen scans) were measured immediately following addition of the substrate and then continuous for 20 minutes. FIG. 6

Mushroom tyrosinase = assay: In vitro anti-tyrosinase activity (L-DOPA, dopachrome at 475 nm)
Method: Mushroom tyrosinase (Prod. No. T7755) and L-DOPA were purchased from Sigma Adrich. […] We also prepared positive controls of lmg/mL kojic acid solutions (with water), with enzyme. Twenty 20 μL of 0.85 mM L-DOPA solution as the substrate was added into every sample and blank. These assay mixtures were incubated at 25° C. for 10 min. The amount of dopachrome produced in the reaction mixture was measured at 475 nm.

Row | SMILES | % inhibition of Collagenase activity ([1]; 20 μg/ml) | % inhibition of Collagenase activity ([1]; 40 μg/ml) | % inhibition of Collagenase activity ([1]; 60 μg/ml) | % inhibition of Collagenase activity ([1]; 80 μg/ml) | % inhibition of Collagenase activity ([1]; 100 μg/ml) | % inhibition of Elastase activity ([2]; 20 μg/ml) | % inhibition of Elastase activity ([2]; 40 μg/ml) | % inhibition of Elastase activity ([2]; 60 μg/ml) | % inhibition of Elastase activity ([2]; 80 μg/ml) | % inhibition of Elastase activity ([2]; 100 μg/ml) | % inhibition of tyrosinase activity (Mushroom tyrosinase; 20 μg/ml) | % inhibition of tyrosinase activity (Mushroom tyrosinase; 40 μg/ml) | % inhibition of tyrosinase activity (Mushroom tyrosinase; 60 μg/ml) | % inhibition of tyrosinase activity (Mushroom tyrosinase; 80 μg/ml) | % inhibition of tyrosinase activity (Mushroom tyrosinase; 100 μg/ml)
1 | O=C(O[C@@H]1Cc2c(O)cc(O)cc2O[C@@H]1c1cc(O)c(O)c(O)c1)c1cc(O)c(O)c(O)c1 [EGCG, epigallocatechin gallate] | 8.30% | 16.93% | 25.83% | 32.70% | 41.52% | 43.98% | 54.36% | 53.32% | 60.37% | 62.45% |  |  |  |  | 
2 | O=c1cc(CO)occ1O [Kojic acid, kojic acid] |  |  |  |  |  |  |  |  |  |  | 64.46% | 77.66% | 88.32% | 91.37% | 93.90%
